From ChEMBL document CHEMBL6083244, “Identification of 3-methyl-1-(3-methylpyridin-2-yl)-1H-pyrazol-5-ol as promising neuroprotective agent” (Bioorg Med Chem Lett, 2024)
Converted amounts (≈) assume the structure as drawn. The source made the active and inactive calls. The calls are words filed in the database; no cut-off is given here.

Key:
[1] = Antioxidant activity assessed as ABTS radical scavenging activity at 8 uM relative to control; type: functional
[2] = tested on: SH-SY5Y; assay: Neuroprotective activity against OGD/R induced cell injury in human SH-SY5Y cells assessed as increase in cell survival rate at 1 uM (reference value: 63.22 +/- 2.12%); type: functional; details: read-out: Survival
[3] = Antioxidant activity assessed as oxygen radical scavenging by measuring trolox equivalents; type: functional
[4] = Antioxidant activity assessed as ABTS radical scavenging activity; type: functional
[5] = Antioxidant activity assessed as DPPH radical scavenging activity; type: functional
[6] = Antioxidant activity assessed as DPPH radical scavenging activity at 8 uM relative to control; type: functional
[7] = tested on: Mus musculus; assay: Neuroprotective activity against tMCAO- induced brain injury in ICR mouse model assessed as restoration of pyramidal cells size at 10 mg/kg, ip by H and E staining based assay; type: functional, organism-based
[8] = tested on: Mus musculus; assay: Neuroprotective activity against tMCAO- induced brain injury in ICR mouse model assessed as reduction in infarct volume at 10 mg/kg, ip (reference value: 43.1%); type: functional; design: scale not given: the % may be the effect or the level left
[9] = species: Mus musculus; assay: Neuroprotective activity against tMCAO- induced brain injury in ICR mouse model assessed as appearance of tightly arranged neuronal cells in CA1 region by H and E staining based assay; type: functional, organism-based
[10] = tested on: SH-SY5Y; assay: Neuroprotective activity against OGD/R induced cell injury in human SH-SY5Y cells assessed as reduction in cell crumpling at 1 uM pretreated with OGD/R for 4 hrs followed by compound addition and measured after 24 hrs by light microscopic analysis; type: functional, cell-based
[11] = tested on: Mus musculus; assay: Neuroprotective activity against tMCAO- induced brain injury in ICR mouse model assessed as restoration of pyramidal cells morphology at 10 mg/kg, ip by H and E staining based assay; type: functional, organism-based
[12] = tested on: SH-SY5Y; assay: Neuroprotective activity against OGD/R induced cell injury in human SH-SY5Y cells assessed as reduction in cell shrinkage at 1 uM pretreated with OGD/R for 4 hrs followed by compound addition and measured after 24 hrs by light microscopic analysis; type: functional, cell-based
[13] = tested on: Mus musculus; assay: Neuroprotective activity against tMCAO- induced brain injury in ICR mouse model assessed as appearance of abundant nissl granules at 10 mg/kg, ip by nissl staining based assay; type: functional, organism-based
[14] = tested on: Mus musculus; assay: Neuroprotective activity against tMCAO- induced brain injury in ICR mouse model assessed as appearance of regularly arranged neuronal nissl bodies at 10 mg/kg, ip by nissl staining based assay; type: functional, organism-based
[15] = Metal chelating activity assessed as Cu2+ chelation by UV-Vis spectroscopy
[16] = Antioxidant activity assessed as DPPH radical scavenging activity measured after 30 mins; type: functional
[17] = Antioxidant activity assessed as DPPH radical scavenging activity measured after 30 mins by spectrophotometry assay; type: functional

Compound	Activity [1] [%]	viability at 1 µM [2] [%]	Activity [3]	IC50 [4] [µM]	IC50 ([5]; read-out: IC50) [µM]	Activity [6] [%]	also measured
Cc1cc(O)n(-c2ccc(F)cn2)n1	51.6	89.5	1.06	13.8	19.8	21.4	
O=C(c1cc(O)c(O)c(O)c1)c1cc(O)c(Br)cc1O							IC50 [5]: 14.4 µg/mL
Cc1c(C)c2c(c(C)c1O)CCC(C)(C(=O)O)O2 (stereo not given)			1				
Cc1cc(O)n(-c2ccccn2)n1	69.1	81.5	1.27	12.3	15.4	35.1	
Oc1cc(C(F)(F)F)nn1-c1ncccc1Cl	40.4	78.8	1.13	19.5	> 120	28.1	
Cc1cc(O)n(-c2ncccc2C)n1	54.7	87	1.88	13.7	16.1	49.9	Activity [7]: Active; Activity [8]: 24.9%; Activity [9]: Active; Activity [10]: Active; Activity [11]: Active; Activity [12]: Active; Activity [13]: Active; Activity [14]: Active; Activity [15]: Active
Cc1cc(O)n(-c2ccc(C(F)(F)F)cn2)n1	55	79.1	1.14	16.1	15.2	30.3	
O=C(O)C1CS[C@@H](c2cccc(F)c2F)N1 (stereo not given in full)					830		
O=C1S/C(=C\c2cn(-c3ccccc3)nc2-c2ccc(O)cc2)C(=O)N1Cc1ccccc1							IC50 [16]: 110.8 µg/mL (≈ 244 µM)
Cc1cc(O)n(-c2ncccc2C(F)(F)F)n1	5.92	77.4	0.98			2.85	
Oc1cc(C(F)(F)F)nn1-c1ccc(F)cn1	58.3	71.8	1.19	16.6	43.1	35.7	
Oc1ccc(/C=C/c2cc(O)cc(O)c2)cc1 [RESVERATROL]							IC50 [17]: 65 µM
OCc1ccc(-n2nc(C(F)(F)F)cc2O)nc1	57.1	78.1	0.91	28	63.9	40.4	Activity [8]: Not active; Showed Weak Activity
Oc1cc(C(F)(F)F)nn1-c1ncc(Cl)cc1Cl	46	76.6	1.3	20.4	> 120	29.4	
Cc1nc(C)c(-n2nc(C(F)(F)F)cc2O)nc1C	55.6	75.4	1.34	19.7	> 120	30.6	
CC1=NN(c2ccccc2)C(=O)C1 [EDARAVONE]	52.3	72.2	1.46	15.8	42.5	21.4	
Oc1cc(C(F)(F)F)nn1-c1ncc(F)cn1	65.4	80.5	1.07	16.3	45.5	30.9	
Cc1cc(O)n(-c2ncccc2Cl)n1	4.56	71.5	0.9			2.36	
Oc1cc(C(F)(F)F)nn1-c1ncccn1	63.2	72.7	1.19	13.9	45.3	36.4	
Oc1cc(C(F)(F)F)nn1-c1ccc(C(F)(F)F)cn1	68.1	84.5	1.1	14.8	35.8	28.4	
C[C@H]1[C@H](C)CC[C@]2(C(=O)O)CC[C@]3(C)C(=CC[C@@H]4[C@@]5(C)CC[C@H](O)C(C)(C)[C@@H]5CC[C@]43C)[C@H]12 [URSOLIC ACID]							IC50 [5]: 59 µg/mL
Cc1cc(O)n(-c2cccc(CO)n2)n1	49.6	75.4	1.06	18.9	59.5	28.5	
O=C(O)/C=C/c1ccc(O)c(O)c1 [CAFFEIC ACID]							IC50 [5]: 0.8 µg/mL
Cc1cc(O)n(-c2ccc(CO)cn2)n1	46.4	81.7	0.8	20.5	32	34.7	
Oc1cc(C(F)(F)F)nn1-c1ncccc1C(F)(F)F	36.1	70.8	1.22	35.5	> 120	34.7	
Cc1cc(C)nc(-n2nc(C)cc2O)n1	63.9	74.7	1.56	14.6	18.5	51.6	
Cc1cc(O)n(-c2ccc(Cl)cn2)n1	52	73.4	1.27	14.8	18.8	53	
CC1=NN(c2ncc(Cl)cc2Cl)C(=O)C1	31.9	82.5	1.42	19.4	> 120	6.73	
COc1cc(/C=C/C(=O)CC(=O)/C=C/c2ccc(O)c(OC)c2)ccc1O [CURCUMIN]							IC50 [5]: 28 µg/mL
